{"source": "patent EP3470068B1", "about": "“ANTIBACTERIAL COMPOSITIONS WITH ENHANCED ACTIVITY” (Università degli Studi di Parma, priority 2017, dated 2019)", "key": {"Gram negative": {"tested_on": "Gram negative", "experiment": "MIC by serial microdilution", "assay_type": "cell-based", "conditions": "used alone", "experimental": "(§1) For each bacterial strain 3-5 morphologically similar colonies from fresh cultures were taken, inoculated in Brain Heart Infusion broth medium and then incubated at 37°C in agitation at 225 r.p.m. for about 3-4 hours. Subsequently, the bacterial suspension was centrifuged at 1000 r.p.m. for 20 minutes and the obtained pellet was resuspended in phosphate buffer 10 mM. Turbidity of the bacterial suspension was measured by evaluating the absorbance using a spectrophotometer at 600 nm. The range 0,08-0,13 equates to a concentration of about 10^8 CFU/ml. The bacterial suspension was diluted 1:100 in phosphate buffer 10 mM, then, within 30 minutes, 50 µl of this bacterial suspension (10^6 CFU/ml) were inoculated in each well of the microtiter plate to obtain a final bacterial concentration of about 5 x 10^5 CFU/ml.\n(§2) The different molecules were tested for their ability to inhibit bacterial and fungal growth in broth culture. Single molecules were diluted in phosphate buffer 10 mM with 40% of Müller Hinton broth. 50 µl of diluted molecules were added to microtiter U plate wells with phosphate buffer and 40% of Müeller Hinton broth and a suspension of one of these strains: Escherichia coli ATCC 25922, Pseudomonas aeruginosa ATCC 27853, Staphylococcus aureus ATCC 25923, MRSA ATCC 43300, Candida albicans ATCC 11006 or Malassezia pachydermatis DSMZ 6172. […]"}, "Gram positive bacteria": {"tested_on": "Gram positive bacteria", "experiment": "MIC by serial microdilution", "assay_type": "cell-based", "conditions": "used alone", "experimental": "as §1, §2"}, "[1]": {"tested_on": "Candida albicans ATCC 11006", "experiment": "LD90/LD99 by microdilution and agar plating (CFU count)", "assay_type": "cell-based", "conditions": "C. albicans ATCC 11006; two hours contact at 37°C, plated on Sabouraud agar, CFU counted", "experimental": "(§3) For each fungal strain 3-5 morphologically similar colonies were collected from fresh cultures, inoculated in Brain Heart Infusion broth medium and then incubated at 37°C in agitation at 225 r.p.m. for 6-8 hours. Subsequently, the fungal suspension was centrifuged at 1000 r.p.m. for 20 minutes and the obtained pellet was resuspended in phosphate buffer 10 mM and diluted to a turbidity equal to 5 of McFarland standard, corresponding to a concentration of 10^8 CFU/ml. The fungal suspension was diluted 1:100 in phosphate buffer 10 mM, then, within 30 minutes, 50 µl of this bacterial suspension (10^6 CFU/ml) were inoculated in each well of microtiter plate to obtain a final concentration of about 5 x 10^5 CFU/ml.\n(§4) Different molecules were tested for their ability to inhibit bacterial and fungal growth in broth culture. 50 µl of molecules at the indicated below concentrations were added to microtiter U plate 96 wells with phosphate buffer and a suspension of one of these strains: Escherichia coli ATCC 25922, Pseudomonas aeruginosa ATCC 27853, Staphylococcus aureus ATCC 25923, MRSA ATCC 43300, Candida albicans ATCC 11006 or Malassezia pachydermatis DSMZ 6172.\n(§5) The following concentrations of the different molecules were tested: • NCP-3: from 0,2 µg/ml to 50 µg/ml • Benzalkonium chloride: from 0,00008% to 0,04% • Thimerosal: from 0,0008% to 0,4% • Tris/EDTA: from 0,4%/0,1% to 0,0008%/0,0002%\n(§6) The bacterial or fungal suspension has been contacted for two hours with the different antimicrobial molecules at 37°C. After incubation, 20 µl of solution were withdrawn from each dilution and plated on agar medium, Columbia with 5% of bovine erythrocytes for bacterial strains and Sabouraud agar for fungal strains. The inoculum was uniformly distributed on agar plates with a sterile disposable handle. After incubation at 37°C for 24 hours for bacterial strains and 48 hours for fungal strains, colonies (CFU) were counted."}, "[2]": {"tested_on": "Malassezia pachydermatis DSMZ 6172", "experiment": "LD90/LD99 by microdilution and agar plating (CFU count)", "assay_type": "cell-based", "conditions": "M. pachydermatis DSMZ 6172; two hours contact at 37°C, plated on Sabouraud agar, CFU counted", "experimental": "as §3, §4, §5, §6"}, "MRSA ATCC 43300 [3]": {"tested_on": "MRSA ATCC 43300", "experiment": "MIC by serial microdilution in liquid culture", "assay_type": "cell-based, Methicillin Resistant Staphylococcus aureus (MRSA)", "conditions": "phosphate buffer 10 mM with 40% Müller Hinton broth, 24 hours at 37°C", "experimental": "as §1, §2"}, "[4]": {"tested_on": "Candida albicans ATCC 11006", "experiment": "MIC by serial microdilution in liquid culture", "assay_type": "cell-based", "conditions": "C. albicans ATCC 11006; phosphate buffer 10 mM with 40% Müller Hinton broth, 48 hours at 37°C", "experimental": "as §3, with “Fungal” for “The fungal”\nas §2"}, "[5]": {"tested_on": "Malassezia pachydermatis DSMZ 6172", "experiment": "MIC by serial microdilution in liquid culture", "assay_type": "cell-based", "conditions": "M. pachydermatis DSMZ 6172; phosphate buffer 10 mM with 40% Müller Hinton broth, 48 hours at 37°C", "experimental": "as §3, with “Fungal” for “The fungal”\nas §2"}, "[6]": {"tested_on": "Staphylococcus aureus ATCC 25923", "experiment": "MIC by serial microdilution in liquid culture", "assay_type": "cell-based", "conditions": "S. aureus ATCC 25923; phosphate buffer 10 mM with 40% Müller Hinton broth, 24 hours at 37°C", "experimental": "as §1\n(§7) The different molecules were tested for their ability to inhibit bacterial and fungal growth in broth culture. Single molecules were diluted in phosphate buffer 10 mM with 40% of Müller Hinton broth. 50 µl of diluted molecules were added to microtiter U plate wells with phosphate buffer and 40% of Müeller Hinton broth and a suspension of one of these strains: Escherichia coli ATCC 25922, Pseudomonas aeruginosa ATCC 27853, Staphylococcus aureus ATCC 25923, MRSA ATCC 43300, Candida albicans ATCC 11006 or Malassezia pachydermatis DSMZ 6172.\n(§8) For bacterial strains the different molecules were tested at the following concentrations: • NCP-3: from 0,2 µg/ml to 50 µg/ml • Benzalkonium chloride: from 0,00008% to 0,04% • Thimerosal: from 0,0008% to 0,4% • Tris/EDTA: from 0,4%/0,1% to 0,0008%/0,0002%\n(§9) Bacterial and fungal growth controls were cultured in absence of antimicrobial molecules. Microtiter plates were incubated 24 or 48 hours (bacterial and fungal strains, respectively) at 37°C and subsequently MIC was determined for each molecule against each strain."}, "[7]": {"tested_on": "Pseudomonas aeruginosa ATCC 27853", "experiment": "MIC by serial microdilution in liquid culture", "assay_type": "cell-based", "conditions": "P. aeruginosa ATCC 27853; phosphate buffer 10 mM with 40% Müller Hinton broth, 24 hours at 37°C", "experimental": "as §1, §7, §8, §9"}, "[8]": {"tested_on": "Escherichia coli ATCC 25922", "experiment": "MIC by serial microdilution in liquid culture", "assay_type": "cell-based", "conditions": "E. coli ATCC 25922; phosphate buffer 10 mM with 40% Müller Hinton broth, 24 hours at 37°C", "experimental": "as §1, §7, §8, §9"}, "MRSA ATCC 43300 [9]": {"tested_on": "MRSA ATCC 43300", "experiment": "LD90/LD99 by microdilution and agar plating (CFU count)", "assay_type": "cell-based, Methicillin Resistant Staphylococcus aureus (MRSA)", "conditions": "two hours contact at 37°C, plated on agar, CFU counted", "experimental": "as §1, with “colonies were collected” for “colonies”, “fresh cultures,” for “fresh cultures were taken,”, “CFU/ml. the” for “CFU/ml. The”\nDifferent molecules were tested for their ability to inhibit bacterial and fungal growth in broth culture. […]\nThe bacterial or fungal suspension has been contacted for two hours with the different antimicrobial molecules at 37°C. […] After incubation at 37°C for 24 hours for bacterial strains and 48 hours for fungal strains, colonies (CFU) were counted."}, "[10]": {"tested_on": "Staphylococcus aureus ATCC 25923", "experiment": "LD90/LD99 by microdilution and agar plating (CFU count)", "assay_type": "cell-based", "conditions": "S. aureus ATCC 25923; two hours contact at 37°C, plated on agar, CFU counted", "experimental": "as §1, with “colonies were collected” for “colonies”, “fresh cultures,” for “fresh cultures were taken,”, “CFU/ml. the” for “CFU/ml. The”\nas §4, §5, §6"}, "[11]": {"tested_on": "Pseudomonas aeruginosa ATCC 27853", "experiment": "LD90/LD99 by microdilution and agar plating (CFU count)", "assay_type": "cell-based", "conditions": "P. aeruginosa ATCC 27853; two hours contact at 37°C, plated on agar, CFU counted", "experimental": "as §1, with “colonies were collected” for “colonies”, “fresh cultures,” for “fresh cultures were taken,”, “CFU/ml. the” for “CFU/ml. The”\nas §4, §5, §6"}, "[12]": {"tested_on": "Escherichia coli ATCC 25922", "experiment": "LD90/LD99 by microdilution and agar plating (CFU count)", "assay_type": "cell-based", "conditions": "E. coli ATCC 25922; two hours contact at 37°C, plated on agar, CFU counted", "experimental": "as §1, with “colonies were collected” for “colonies”, “fresh cultures,” for “fresh cultures were taken,”, “CFU/ml. the” for “CFU/ml. The”\nas §4, §5, §6"}}, "note": "Peptide text beside a SMILES is read from it."}
{"compound": "CC[C@H](C)[C@H](NC(=O)[C@H](CCCCN)NC(=O)[C@H](Cc1ccc(O)cc1)NC(=O)[C@H](Cc1ccccc1)NC(=O)[C@H](CC(C)C)NC(=O)[C@H](CC(N)=O)NC(=O)[C@H](CCCCN)NC(=O)[C@@H](NC(=O)[C@H](C)NC(=O)[C@@H]1CCCN1C(=O)[C@@H](NC(=O)[C@@H](NC(=O)[C@H](CCCCN)NC(=O)[C@H](CO)NC(=O)[C@H](CC(C)C)NC(=O)[C@@H](NC(=O)[C@H](Cc1c[nH]c2ccccc12)NC(=O)[C@@H](NC(=O)[C@H](CC(C)C)NC(=O)[C@@H](N)CCCCN)[C@@H](C)CC)[C@@H](C)CC)[C@@H](C)O)[C@@H](C)CC)[C@@H](C)CC)C(=O)O", "note": "[NCP-3] (H-KLIWILSKTIPAIKNLFYKI-OH)", "values": [{"measurement": "MIC", "setting": "Gram negative", "result": "6,3 µg/ml"}, {"measurement": "MIC", "setting": "Gram positive bacteria", "result": "3,2 µg/ml"}, {"measurement": "LD90", "setting": "[1]", "result": ">6,3 µg/ml"}, {"measurement": "LD99", "setting": "[1]", "result": "12,5 µg/ml"}, {"measurement": "LD90", "setting": "[2]", "result": ">1,6 µg/ml"}, {"measurement": "LD99", "setting": "[2]", "result": "3,2 µg/ml"}, {"measurement": "MIC", "setting": "MRSA ATCC 43300 [3]", "result": "6,3 µg/ml"}, {"measurement": "MIC", "setting": "[4]", "result": "12,5 µg/ml"}, {"measurement": "MIC", "setting": "[5]", "result": "3,1 µg/ml"}, {"measurement": "MIC", "setting": "[6]", "result": "3,1 µg/ml"}, {"measurement": "MIC", "setting": "[7]", "result": "6,3 µg/ml"}, {"measurement": "MIC", "setting": "[8]", "result": "6,3 µg/ml"}, {"measurement": "LD90", "setting": "MRSA ATCC 43300 [9]", "result": "6,3 µg/ml"}, {"measurement": "LD99", "setting": "MRSA ATCC 43300 [9]", "result": "12,5 µg/ml"}, {"measurement": "LD90", "setting": "[10]", "result": ">1,6 µg/ml"}, {"measurement": "LD99", "setting": "[10]", "result": "6,3 µg/ml"}, {"measurement": "LD90", "setting": "[11]", "result": "6,3 µg/ml"}, {"measurement": "LD99", "setting": "[11]", "result": "12,5 µg/ml"}, {"measurement": "LD90", "setting": "[12]", "result": "6,3 µg/ml"}, {"measurement": "LD99", "setting": "[12]", "result": "12,5 µg/ml"}]}
